Experimental data published in article PMC12090182, “Repurposing of the RIPK1-Selective Benzo[1,4]oxazepin-4-one Scaffold for the Development of a Type III LIMK1/2 Inhibitor” (ACS Chemical Biology, 2025).

Key:
Test in all cases: biochemical
Assay type in all cases: binding
[1] = biological target: 468 kinases including some pathogenic mutants (Homo sapiens, UniProt Q9UHD2); details: TBK1 (Entrez TBK1), 100 nM; read-out: Percent Control
[2] = biological target: 468 kinases including some pathogenic mutants (Homo sapiens, UniProt P14616); details: INSRR (Entrez INSRR), 100 nM; read-out: Percent Control
Sequence of 468 kinases including some pathogenic mutants (Homo sapiens, UniProt P14616) (P14616 27-1297, stated change not applied): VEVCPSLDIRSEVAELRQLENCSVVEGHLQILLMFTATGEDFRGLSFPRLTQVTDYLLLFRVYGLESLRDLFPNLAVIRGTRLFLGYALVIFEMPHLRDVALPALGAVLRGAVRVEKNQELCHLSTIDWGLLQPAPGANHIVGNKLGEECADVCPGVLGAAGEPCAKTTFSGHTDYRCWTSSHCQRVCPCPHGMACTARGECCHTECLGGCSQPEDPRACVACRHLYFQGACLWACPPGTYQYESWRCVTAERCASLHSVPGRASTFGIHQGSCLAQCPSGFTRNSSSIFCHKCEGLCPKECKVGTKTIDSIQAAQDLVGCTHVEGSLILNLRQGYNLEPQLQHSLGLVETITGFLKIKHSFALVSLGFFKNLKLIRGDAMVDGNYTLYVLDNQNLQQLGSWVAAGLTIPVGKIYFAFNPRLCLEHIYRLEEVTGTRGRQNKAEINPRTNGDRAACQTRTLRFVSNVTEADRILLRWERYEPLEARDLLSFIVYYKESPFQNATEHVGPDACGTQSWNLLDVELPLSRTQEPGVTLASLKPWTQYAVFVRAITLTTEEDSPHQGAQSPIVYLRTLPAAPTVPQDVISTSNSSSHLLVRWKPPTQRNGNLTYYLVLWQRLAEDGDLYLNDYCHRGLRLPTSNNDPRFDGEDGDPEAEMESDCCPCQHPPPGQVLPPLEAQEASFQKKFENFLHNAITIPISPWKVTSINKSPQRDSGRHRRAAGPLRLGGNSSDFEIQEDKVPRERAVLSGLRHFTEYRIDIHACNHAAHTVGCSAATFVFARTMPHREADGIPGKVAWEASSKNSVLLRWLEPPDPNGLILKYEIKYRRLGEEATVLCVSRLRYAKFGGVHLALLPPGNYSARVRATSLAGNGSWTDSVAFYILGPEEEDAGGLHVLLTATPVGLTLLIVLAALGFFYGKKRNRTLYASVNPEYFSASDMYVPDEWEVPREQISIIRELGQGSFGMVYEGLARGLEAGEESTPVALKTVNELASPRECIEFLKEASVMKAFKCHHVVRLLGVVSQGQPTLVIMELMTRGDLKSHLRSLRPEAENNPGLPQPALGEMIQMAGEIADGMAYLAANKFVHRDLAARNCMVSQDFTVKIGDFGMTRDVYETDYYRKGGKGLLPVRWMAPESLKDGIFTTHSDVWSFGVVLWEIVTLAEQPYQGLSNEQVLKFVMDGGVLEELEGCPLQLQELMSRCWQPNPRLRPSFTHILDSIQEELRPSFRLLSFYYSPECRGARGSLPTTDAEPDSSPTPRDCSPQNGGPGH

[3] = biological target: 468 kinases including some pathogenic mutants (Homo sapiens, UniProt Q8WTQ7); details: GRK7 (Entrez GRK7), 100 nM; read-out: Percent Control
[4] = biological target: 468 kinases including some pathogenic mutants (Homo sapiens, UniProt Q8NEV4); details: MYO3A (Entrez MYO3A), 100 nM; read-out: Percent Control
Sequence of 468 kinases including some pathogenic mutants (Homo sapiens, UniProt Q8NEV4) (Q8NEV4 whole entry, change not shown): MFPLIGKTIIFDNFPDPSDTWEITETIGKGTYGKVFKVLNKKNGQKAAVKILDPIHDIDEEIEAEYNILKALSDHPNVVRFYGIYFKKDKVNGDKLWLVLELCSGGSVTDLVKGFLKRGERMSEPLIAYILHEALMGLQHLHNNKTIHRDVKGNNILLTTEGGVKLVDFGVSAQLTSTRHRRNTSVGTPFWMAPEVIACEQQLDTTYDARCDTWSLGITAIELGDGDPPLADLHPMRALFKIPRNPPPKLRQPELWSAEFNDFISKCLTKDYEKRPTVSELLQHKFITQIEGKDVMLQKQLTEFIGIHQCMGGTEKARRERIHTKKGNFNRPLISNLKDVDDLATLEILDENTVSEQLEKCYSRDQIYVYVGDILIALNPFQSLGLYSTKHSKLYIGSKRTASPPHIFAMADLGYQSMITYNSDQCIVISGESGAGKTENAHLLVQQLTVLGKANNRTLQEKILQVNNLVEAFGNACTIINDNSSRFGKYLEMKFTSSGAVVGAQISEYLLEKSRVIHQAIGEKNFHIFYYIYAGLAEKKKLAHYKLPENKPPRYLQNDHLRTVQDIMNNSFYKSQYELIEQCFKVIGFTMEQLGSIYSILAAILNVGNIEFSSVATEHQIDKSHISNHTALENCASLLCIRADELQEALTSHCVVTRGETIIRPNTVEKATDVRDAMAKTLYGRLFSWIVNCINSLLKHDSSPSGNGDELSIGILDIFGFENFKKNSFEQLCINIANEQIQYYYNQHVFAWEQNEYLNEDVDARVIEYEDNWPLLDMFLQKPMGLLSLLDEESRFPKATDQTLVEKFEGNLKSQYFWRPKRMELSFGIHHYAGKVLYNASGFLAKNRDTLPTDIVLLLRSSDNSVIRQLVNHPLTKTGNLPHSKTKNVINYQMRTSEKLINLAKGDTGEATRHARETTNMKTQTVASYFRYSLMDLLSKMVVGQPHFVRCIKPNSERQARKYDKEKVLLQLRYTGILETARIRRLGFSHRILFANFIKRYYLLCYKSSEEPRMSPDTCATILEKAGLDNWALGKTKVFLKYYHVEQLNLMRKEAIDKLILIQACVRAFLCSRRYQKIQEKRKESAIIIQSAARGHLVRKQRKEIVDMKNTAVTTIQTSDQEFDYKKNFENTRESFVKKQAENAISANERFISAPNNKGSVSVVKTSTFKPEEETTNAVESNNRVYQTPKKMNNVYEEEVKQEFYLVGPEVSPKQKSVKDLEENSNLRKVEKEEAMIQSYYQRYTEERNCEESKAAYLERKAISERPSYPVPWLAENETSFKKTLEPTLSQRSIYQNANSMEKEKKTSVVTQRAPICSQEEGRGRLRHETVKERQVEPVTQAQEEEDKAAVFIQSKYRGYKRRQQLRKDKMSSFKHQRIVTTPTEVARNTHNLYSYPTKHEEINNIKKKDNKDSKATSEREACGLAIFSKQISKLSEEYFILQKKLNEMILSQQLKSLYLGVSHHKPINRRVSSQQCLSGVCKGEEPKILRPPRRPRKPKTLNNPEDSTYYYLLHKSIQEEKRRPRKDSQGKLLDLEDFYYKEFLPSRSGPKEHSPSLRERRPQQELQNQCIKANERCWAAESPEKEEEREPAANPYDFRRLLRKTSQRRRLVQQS

[5] = biological target: 468 kinases including some pathogenic mutants (Homo sapiens, UniProt Q13164); details: ERK5 (Entrez MAPK7), 100 nM; read-out: Percent Control
[6] = biological target: 468 kinases including some pathogenic mutants (Homo sapiens, UniProt O43683); details: BUB1 (Entrez BUB1), 100 nM; read-out: Percent Control
[7] = biological target: 468 kinases including some pathogenic mutants (Homo sapiens, UniProt Q9UQB9); details: AURKC (Entrez AURKC), 100 nM; read-out: Percent Control
Sequence of 468 kinases including some pathogenic mutants (Homo sapiens, UniProt Q9UQB9) (Q9UQB9 whole entry, change not shown): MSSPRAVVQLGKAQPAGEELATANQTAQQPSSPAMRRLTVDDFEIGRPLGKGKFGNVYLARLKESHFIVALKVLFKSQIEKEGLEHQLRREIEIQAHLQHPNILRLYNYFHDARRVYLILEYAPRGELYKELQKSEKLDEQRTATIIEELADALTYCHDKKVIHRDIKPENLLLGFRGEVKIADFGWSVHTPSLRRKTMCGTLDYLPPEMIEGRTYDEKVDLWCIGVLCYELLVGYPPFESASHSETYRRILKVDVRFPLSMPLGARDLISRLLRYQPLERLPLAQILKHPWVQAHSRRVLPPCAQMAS

[8] = biological target: 468 kinases including some pathogenic mutants (Homo sapiens, UniProt P20794); details: MAK (Entrez MAK), 1000 nM; read-out: Percent Control
[9] = biological target: 468 kinases including some pathogenic mutants (Homo sapiens, UniProt Q9BQI3); details: EIF2AK1 (Entrez EIF2AK1), 100 nM; read-out: Percent Control
[10] = biological target: 468 kinases including some pathogenic mutants (Homo sapiens, UniProt Q12852); details: DLK (Entrez MAP3K12), 100 nM; read-out: Percent Control
[11] = biological target: 468 kinases including some pathogenic mutants (Homo sapiens, UniProt O15146); details: MUSK (Entrez MUSK), 100 nM; read-out: Percent Control
[12] = biological target: 468 kinases including some pathogenic mutants (Homo sapiens, UniProt O94768); details: DRAK2 (Entrez STK17B), 100 nM; read-out: Percent Control
Sequence of 468 kinases including some pathogenic mutants (Homo sapiens, UniProt O94768) (O94768 whole entry, change not shown): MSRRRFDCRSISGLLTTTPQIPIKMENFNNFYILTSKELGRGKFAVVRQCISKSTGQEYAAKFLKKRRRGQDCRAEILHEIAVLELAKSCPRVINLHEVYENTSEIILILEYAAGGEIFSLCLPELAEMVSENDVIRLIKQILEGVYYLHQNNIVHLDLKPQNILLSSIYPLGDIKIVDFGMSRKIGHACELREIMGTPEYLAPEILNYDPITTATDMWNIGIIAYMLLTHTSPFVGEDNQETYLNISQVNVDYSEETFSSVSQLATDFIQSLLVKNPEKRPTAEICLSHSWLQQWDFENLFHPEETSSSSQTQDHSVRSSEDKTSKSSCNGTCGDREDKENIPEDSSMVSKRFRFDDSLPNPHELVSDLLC

[13] = biological target: 468 kinases including some pathogenic mutants (Homo sapiens, UniProt O00444); details: PLK4 (Entrez PLK4), 100 nM; read-out: Percent Control
Sequence of 468 kinases including some pathogenic mutants (Homo sapiens, UniProt O00444) (O00444 whole entry, change not shown): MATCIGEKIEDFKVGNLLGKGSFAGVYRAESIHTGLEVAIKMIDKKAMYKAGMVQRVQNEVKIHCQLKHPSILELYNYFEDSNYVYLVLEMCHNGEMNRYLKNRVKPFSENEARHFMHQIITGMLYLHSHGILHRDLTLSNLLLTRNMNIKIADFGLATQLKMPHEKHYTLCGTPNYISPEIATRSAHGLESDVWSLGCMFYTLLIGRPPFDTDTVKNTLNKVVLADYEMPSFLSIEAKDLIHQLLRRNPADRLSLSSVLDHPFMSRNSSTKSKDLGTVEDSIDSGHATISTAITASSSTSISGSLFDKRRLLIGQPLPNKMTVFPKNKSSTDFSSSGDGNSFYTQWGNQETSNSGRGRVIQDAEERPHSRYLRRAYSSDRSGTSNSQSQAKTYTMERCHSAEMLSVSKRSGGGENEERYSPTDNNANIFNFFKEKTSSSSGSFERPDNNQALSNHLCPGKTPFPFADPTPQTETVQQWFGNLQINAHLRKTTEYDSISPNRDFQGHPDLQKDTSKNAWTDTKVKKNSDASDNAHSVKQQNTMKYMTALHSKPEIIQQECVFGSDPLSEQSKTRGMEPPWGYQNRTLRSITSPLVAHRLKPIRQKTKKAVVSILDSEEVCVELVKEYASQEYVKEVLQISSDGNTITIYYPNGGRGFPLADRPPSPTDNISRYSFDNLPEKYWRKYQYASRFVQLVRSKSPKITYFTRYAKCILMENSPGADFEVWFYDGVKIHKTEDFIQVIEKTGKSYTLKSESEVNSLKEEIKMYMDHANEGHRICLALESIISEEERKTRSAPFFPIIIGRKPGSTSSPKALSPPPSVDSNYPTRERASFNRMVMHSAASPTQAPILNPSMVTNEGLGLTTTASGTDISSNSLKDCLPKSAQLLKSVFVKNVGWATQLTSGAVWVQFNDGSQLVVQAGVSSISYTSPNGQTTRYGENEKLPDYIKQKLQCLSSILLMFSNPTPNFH

[14] = biological target: 468 kinases including some pathogenic mutants (Homo sapiens, UniProt Q05397); details: FAK (Entrez PTK2), 100 nM; read-out: Percent Control
[15] = biological target: 468 kinases including some pathogenic mutants (Homo sapiens, UniProt P08581, Y1235D); details: read-out: Percent Control
[16] = biological target: 468 kinases including some pathogenic mutants (Homo sapiens, UniProt Q16513); details: PKN2 (Entrez PKN2), 1000 nM; read-out: Percent Control
[17] = biological target: 468 kinases including some pathogenic mutants (Homo sapiens, UniProt Q8NG66); details: NEK11 (Entrez NEK11), 100 nM; read-out: Percent Control
[18] = biological target: 468 kinases including some pathogenic mutants (Homo sapiens, UniProt Q02750); details: MEK1 (Entrez MAP2K1), 1000 nM; read-out: Percent Control
[19] = biological target: 468 kinases including some pathogenic mutants (Homo sapiens, UniProt P49840); details: GSK3A (Entrez GSK3A), 100 nM; read-out: Percent Control
Sequence of 468 kinases including some pathogenic mutants (Homo sapiens, UniProt P49840) (P49840 whole entry, change not shown): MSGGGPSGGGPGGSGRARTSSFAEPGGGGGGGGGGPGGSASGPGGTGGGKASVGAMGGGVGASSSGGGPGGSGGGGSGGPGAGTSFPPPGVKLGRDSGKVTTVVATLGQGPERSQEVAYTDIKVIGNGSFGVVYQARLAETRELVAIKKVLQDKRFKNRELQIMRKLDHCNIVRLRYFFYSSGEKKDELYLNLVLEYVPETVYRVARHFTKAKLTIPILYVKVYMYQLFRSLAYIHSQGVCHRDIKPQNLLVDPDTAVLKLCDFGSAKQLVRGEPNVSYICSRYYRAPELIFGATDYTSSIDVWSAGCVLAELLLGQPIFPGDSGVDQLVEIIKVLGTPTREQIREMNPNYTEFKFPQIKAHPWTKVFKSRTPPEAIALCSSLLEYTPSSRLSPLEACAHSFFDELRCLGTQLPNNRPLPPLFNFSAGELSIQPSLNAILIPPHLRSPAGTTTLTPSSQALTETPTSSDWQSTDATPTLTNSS

[20] = biological target: 468 kinases including some pathogenic mutants (Homo sapiens, UniProt P07948); details: LYN (Entrez LYN), 100 nM; read-out: Percent Control
[21] = biological target: 468 kinases including some pathogenic mutants (Homo sapiens, UniProt P57059); details: SIK (Entrez SIK1), 100 nM; read-out: Percent Control
[22] = biological target: 468 kinases including some pathogenic mutants (Homo sapiens, UniProt Q9H422); details: HIPK3 (Entrez HIPK3), 100 nM; read-out: Percent Control
[23] = biological target: 468 kinases including some pathogenic mutants (Homo sapiens, UniProt P51451); details: BLK (Entrez BLK), 100 nM; read-out: Percent Control
[24] = biological target: 468 kinases including some pathogenic mutants (Homo sapiens, UniProt O96013); details: PAK4 (Entrez PAK4), 100 nM; read-out: Percent Control
[25] = biological target: 468 kinases including some pathogenic mutants (Homo sapiens, UniProt P33981); details: TTK (Entrez TTK), 100 nM; read-out: Percent Control
[26] = biological target: 468 kinases including some pathogenic mutants (Homo sapiens, UniProt Q56UN5); details: YSK4 (Entrez MAP3K19), 1000 nM; read-out: Percent Control
[27] = biological target: 468 kinases including some pathogenic mutants (Homo sapiens, UniProt Q9H1R3); details: MYLK2 (Entrez MYLK2), 100 nM; read-out: Percent Control
[28] = biological target: 468 kinases including some pathogenic mutants (Homo sapiens, UniProt O75747); details: PIK3C2G (Entrez PIK3C2G), 100 nM; read-out: Percent Control

CN1C(=O)[C@@H](N2CCc3c(nn(Cc4ccccc4)c3C(N)=O)C2=O)COc2cc(Cl)ccc21 [Compound 10, (S)-2-benzyl-6-(8-chloro-5-methyl-4-oxo-2,3,4,5-tetrahydrobenzo[b][1,4]oxazepin-3-yl)-7-oxo-4,5,6,7-tetrahydro-2H-pyrazolo[3,4-c]pyridine-3-carboxamide]
remaining activity at 0.1 µM [1]: 89% | remaining activity at 0.1 µM [2]: 68% | remaining activity at 0.1 µM [3]: 77% | remaining activity at 0.1 µM [4]: 83% | remaining activity at 0.1 µM [5]: 85% | remaining activity at 0.1 µM [6]: 84% | remaining activity at 0.1 µM [7]: 67% | remaining activity at 1 µM [8]: 100% | remaining activity at 0.1 µM [9]: 100% | remaining activity at 0.1 µM [10]: 72% | remaining activity at 0.1 µM [11]: 94% | remaining activity at 0.1 µM [12]: 84% | remaining activity at 0.1 µM [13]: 58% | remaining activity at 0.1 µM [14]: 82% | remaining activity at 0.1 µM [15]: 87% | remaining activity at 1 µM [16]: 100% | remaining activity at 0.1 µM [17]: 76% | remaining activity at 1 µM [18]: 100% | remaining activity at 0.1 µM [19]: 100% | remaining activity at 0.1 µM [20]: 100% | remaining activity at 0.1 µM [21]: 71% | remaining activity at 0.1 µM [22]: 77% | remaining activity at 0.1 µM [23]: 84% | remaining activity at 0.1 µM [24]: 100% | remaining activity at 0.1 µM [25]: 82% | remaining activity at 1 µM [26]: 100% | remaining activity at 0.1 µM [27]: 90% | remaining activity at 0.1 µM [28]: 67%
